{"source": "patent US20130123365A1", "about": "“USE OF FTS AND ANALOGS TO TREAT NON-AUTOIMMUNE-ALLERGIC AND NON-ALLERGIC INFLAMMATORY CONDITIONS” (RAMOT AT TEL-AVIV UNIVERSITY LTD., priority 2010, published 2013)", "key": {"[1]": {"target": "T1, N-Ras (Homo sapiens, UniProt P01111)", "T1 construct": "expressed in transfected cells; host or cells: LAD2 human mast cell line", "T1 sequence (P01111 whole entry, species assumed)": "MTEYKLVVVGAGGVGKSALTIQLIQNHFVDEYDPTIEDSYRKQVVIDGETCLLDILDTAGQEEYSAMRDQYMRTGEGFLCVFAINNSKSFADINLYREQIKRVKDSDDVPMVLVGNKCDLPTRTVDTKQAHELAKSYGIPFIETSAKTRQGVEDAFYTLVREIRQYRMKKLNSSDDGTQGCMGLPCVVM", "assay": "Ras activation imaging: GFP-Raf-1-RBD probe translocation in LAD2 cells after FCεRI cross-linking", "assay_type": "cell-based", "details": "LAD2 cells expressing RFP-N-Ras, pretreated with 25 μM FTS", "method": "The LAD2 MC, expressing functional FCεRI receptors, were established from bone marrow aspirates of a patient with MC leukemia and maintained as previously described. Transfection of LAD2 cells was performed with DMRIE-C (Invitrogen, Carlsbad, Calif.), and cells were studied 24 hours later.\n(§1) For IgE-mediated activation, cells were sensitized overnight with 100 ng/ml of human myeloma IgE-biotin (Calbiochem; Merck Darmstadt, Germany) and then stimulated with 100 ng/ml of streptavidin (Jackson Immuno-Research Laboratories, West Grove, Pa.). Degranulation was quantified 20 minutes after stimulation by assaying the release of ε-hexosaminidase, a preformed mediator present in the secretory granules of MC. Release of ε-hexosaminidase was measured spectrophotometrically by assaying the cleavage of its substrate p-nitrophenyl-N-acetyl-ε-D-glucosaminide. Degranulation was expressed as a percentage of total ε-hexosaminidase activity in the cells, obtained by lysis of the cells with 0.5% triton X-100. Supernatants obtained from MC stimulated for 3 to 6 hours were examined for the released PGD2 and TNF-α by a commercial ELISA kits, according to the manufacturer's instructions (Prostaglandin D2-MOX EIA Kit, Cayman Chemical Company, Ann Arbor, Mich., and TNF-α HS Elisa kit, R&D® Systems Inc., Minneapolis, Minn.).\nLive cells were plated in 35-mm dishes containing a no. […]"}, "[2]": {"test_system": "Ras", "assay": "Raf-1-RBD pull-down assay of GTP loaded Ras in stimulated LAD2 cells", "assay_type": "cell-based, human", "details": "FCεRI cross-linking, pretreated with 25 μM FTS", "method": "as §1, with “Minn.). Methods of detecting activated Ras by pull-down assay and by SDS-PAGE immunoblotting were performed as previously described.” for “Minn.).”"}, "[3]": {"test_system": "LAD2 cells", "assay": "Mast cell degranulation (β-hexosaminidase secretion) after FCεRI cross-linking", "assay_type": "cell-based, human", "details": "20 minutes after stimulation", "method": "as §1, with “The LAD2 MC, expressing functional FCεRI receptors, were established from bone marrow aspirates of a patient with MC leukemia and maintained as previously described. Transfection of LAD2 cells was performed with DMRIE-C (Invitrogen, Carlsbad, Calif.), and cells were studied 24 hours later. For” for “For”"}, "[4]": {"test_system": "LAD2 cells", "assay": "PGD2 release from stimulated mast cells (ELISA)", "assay_type": "cell-based, human", "details": "6 hours after stimulation", "method": "as §1, with “The LAD2 MC, expressing functional FCεRI receptors, were established from bone marrow aspirates of a patient with MC leukemia and maintained as previously described. Transfection of LAD2 cells was performed with DMRIE-C (Invitrogen, Carlsbad, Calif.), and cells were studied 24 hours later. For” for “For”"}, "[5]": {"test_system": "LAD2 cells", "assay": "TNF-α release from stimulated mast cells (ELISA)", "assay_type": "cell-based, human", "details": "different concentrations of FTS, 3 hours after stimulation, dose dependent, p<0.05", "method": "as §1, with “The LAD2 MC, expressing functional FCεRI receptors, were established from bone marrow aspirates of a patient with MC leukemia and maintained as previously described. Transfection of LAD2 cells was performed with DMRIE-C (Invitrogen, Carlsbad, Calif.), and cells were studied 24 hours later. For” for “For”"}, "[6]": {"test_system": "BALB/c female mice", "assay": "IgE-dependent passive cutaneous anaphylaxis reaction, footpad swelling", "assay_type": "in vivo", "details": "oral 100 mg/kg", "method": "The study was approved by the Institutional Ethics Committee of Tel Aviv University. 8-10 weeks old BALB/c female mice were primed to express an IgE-dependent passive cutaneous anaphylaxis (PCA) reaction. Mice were lightly anaesthetized with ether and their left footpads were injected subcutaneously with 20 ul (20 ng) of IgE anti DNP. Their right footpads were injected with 20 ul of diluents. The next day the mice received an intraperitoneal injection of 100 ug of DNP30-40-HAS in saline. Footpad swelling was measured with an engineer's micrometer (Ozaki Mfg. Co., Itabashi, Tokyo). Footpad swelling was expressed as the difference in thickness before and after the challenge, measured at several time points after the challenge. FTS was orally administrated before the antigen challenge at 100 mg/kg as previously described."}}}
{"smiles": "CC(C)=CCCC(C)=CCCC(C)=CCSc1ccccc1C(=O)O", "note": "[FTS, S-farnesylthiosalicylic acid]", "values": [{"measurement": "translocation of the probe for activated Ras (GFP-Raf-1-RBD) to the plasma membrane", "setting": "[1]", "result": "completely blocked"}, {"measurement": "levels of GTP loaded Ras", "setting": "[2]", "result": "significantly attenuated"}, {"measurement": "relative reduction in the amount of activated Ras", "setting": "[2]; n=4", "result": "approximately 35%"}, {"measurement": "immunological degranulation (β-hexosaminidase secretion)", "setting": "[3]; 25 μM FTS", "result": "did not significantly modify"}, {"measurement": "immunological degranulation (β-hexosaminidase secretion)", "setting": "[3]; 50 μM FTS", "result": "did not significantly modify"}, {"measurement": "release of PGD2", "setting": "[4]; 25 μM FTS", "result": "not"}, {"measurement": "release of PGD2", "setting": "[4]; 50 μM FTS", "result": "inhibited"}, {"measurement": "TNF-α release", "setting": "[5]", "result": "appreciably inhibited"}, {"measurement": "tissue (footpad) swelling", "setting": "[6]; three hours after antigen challenge", "result": "inhibited tissue swelling"}, {"measurement": "attenuation of tissue (footpad) swelling", "setting": "[6]; three to six hours after antigen challenge", "result": "~40", "unit": "%"}]}
